Several values for one entry are separate records, joined by “and”; a condition that tells them apart may be missing. Equal values may be shown once. Toxic doses and inconclusive results are not listed.
Tested on: P388 leukemia ip, CD2F1 mice, survival T/C
Assay: NCI In Vivo Anticancer Drug Screen. Data for tumor model P388 Leukemia (intraperitoneal) in CD2F1 (CDF1) mice
Details: endpoint: median survival time, higher = longer survival
Method in brief: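 Mice carrying the transplanted tumor received test compound or vehicle. Survival was recorded in each group, and the value is the treated-group measurement divided by that of the vehicle-treated control group.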

[1] = dose: 50.0 mg/kg/injection, schedule: Q04DX003 (ip), vehicle: Klucel (hydroxypropylcellulose) (HPC)
[2] = dose: 100.0 mg/kg/injection, schedule: Q04DX003 (ip), vehicle: Klucel (hydroxypropylcellulose) (HPC)
[3] = dose: 100.0 mg/kg/injection, schedule: Q04DX003 (ip), vehicle: saline
[4] = dose: 400.0 mg/kg/injection, schedule: Q04DX003 (ip), vehicle: saline
[5] = dose: 50.0 mg/kg/injection, schedule: Q01DX009 (ip), vehicle: Klucel (hydroxypropylcellulose) (HPC)
[6] = dose: 100.0 mg/kg/injection, schedule: Q01DX009 (ip), vehicle: Klucel (hydroxypropylcellulose) (HPC)
[7] = dose: 200.0 mg/kg/injection, schedule: Q01DX009 (ip), vehicle: Klucel (hydroxypropylcellulose) (HPC)
[8] = dose: 50.0 mg/kg/injection, schedule: Q01DX009 (ip), vehicle: saline
[9] = dose: 100.0 mg/kg/injection, schedule: Q01DX001 (ip), vehicle: saline with Tween-80
[10] = dose: 200.0 mg/kg/injection, schedule: Q01DX001 (ip), vehicle: saline with Tween-80
[11] = dose: 400.0 mg/kg/injection, schedule: Q01DX001 (ip), vehicle: saline with Tween-80
[12] = dose: 25.0 mg/kg/injection, schedule: Q01DX009 (ip), vehicle: saline with Tween-80
[13] = dose: 50.0 mg/kg/injection, schedule: Q01DX009 (ip), vehicle: saline with Tween-80
[14] = dose: 100.0 mg/kg/injection, schedule: Q01DX009 (ip), vehicle: saline with Tween-80
[15] = dose: 60.0 mg/kg/injection, schedule: Q01DX005 (ip), vehicle: saline with Tween-80

NC(N)=Nc1nc2ccccc2o1
T/C [1]: 90 % of control
T/C [2]: 100 % of control
T/C (dose: 200.0 mg/kg/injection, schedule: Q04DX003 (ip), vehicle: Klucel (hydroxypropylcellulose) (HPC)): 100 % of control

COc1ccc(Cc2cc3c(cc2OCC(=O)Nc2nccs2)OCO3)cc1
T/C (dose: 50.0 mg/kg/injection, schedule: Q01DX005 (ip), vehicle: Klucel (hydroxypropylcellulose) (HPC)): 88 % of control
T/C (dose: 100.0 mg/kg/injection, schedule: Q01DX005 (ip), vehicle: Klucel (hydroxypropylcellulose) (HPC)): 97 % of control
T/C (dose: 200.0 mg/kg/injection, schedule: Q01DX005 (ip), vehicle: Klucel (hydroxypropylcellulose) (HPC)): 97 % of control

Clc1ccccc1Nc1c2ccccc2nc2ccccc12
T/C [3]: 100 % of control
T/C (dose: 132.0 mg/kg/injection, schedule: Q04DX003 (ip), vehicle: suspension in saline): 108 % of control
T/C (dose: 200.0 mg/kg/injection, schedule: Q04DX003 (ip), vehicle: suspension in saline): 110 % of control
T/C (dose: 300.0 mg/kg/injection, schedule: Q04DX003 (ip), vehicle: suspension in saline): 115 % of control
T/C [4]: 104 % of control

COc1cccc(-c2cc(C(=O)O)c3cc4ccccc4cc3n2)c1OC
T/C [5]: 100 % of control
T/C [6]: 101 % of control
T/C [7]: 100 % of control

NC(=O)c1[nH]cnc1NN=NCCF
T/C (dose: 0.39 mg/kg/injection, schedule: Q01DX009 (ip), vehicle: distilled water + Tween-80): 116 % of control and 122 % of control
T/C (dose: 0.78 mg/kg/injection, schedule: Q01DX009 (ip), vehicle: distilled water + Tween-80): 116 % of control
T/C (dose: 1.56 mg/kg/injection, schedule: Q01DX009 (ip), vehicle: distilled water + Tween-80): 150 % of control
T/C (dose: 3.13 mg/kg/injection, schedule: Q01DX009 (ip), vehicle: distilled water + Tween-80): 179 % of control
T/C (dose: 6.25 mg/kg/injection, schedule: Q01DX009 (ip), vehicle: distilled water + Tween-80): 175 % of control

COc1cc(Cc2nc3n(O)cc(C)nc-3c(=N)n2)cc(OC)c1OC
T/C (dose: 12.5 mg/kg/injection, schedule: Q01DX009 (ip), vehicle: saline): 99 % of control
T/C (dose: 25.0 mg/kg/injection, schedule: Q01DX009 (ip), vehicle: saline): 105 % of control
T/C [8]: 108 % of control

N#Cc1ccc(Br)cc1[N+](=O)[O-]
T/C (dose: 0.78 mg/kg/injection, schedule: Q01DX009 (ip), vehicle: Klucel (hydroxypropylcellulose) (HPC)): 106 % of control
T/C (dose: 1.56 mg/kg/injection, schedule: Q01DX009 (ip), vehicle: Klucel (hydroxypropylcellulose) (HPC)): 102 % of control
T/C (dose: 3.12 mg/kg/injection, schedule: Q01DX009 (ip), vehicle: Klucel (hydroxypropylcellulose) (HPC)): 100 % of control and 96 % of control

CCC(c1ccc(OC)cc1)C(NC(=S)Nc1ccc(C)cc1)c1ccc(OC)cc1 (stereo not drawn)
T/C [9]: 88 % of control
T/C [10]: 88 % of control
T/C [11]: 90 % of control

O=C(CI)NCCNc1cccc2c(S(=O)(=O)O)cccc12
T/C [12]: 102 % of control
T/C [13]: 100 % of control
T/C [14]: 110 % of control and 95 % of control

CN(C)CCCNc1nc(-c2cccc(C(Cl)(Cl)Cl)c2)nc(C(Cl)(Cl)Cl)n1
T/C [12]: 109 % of control
T/C [13]: 111 % of control

Cc1nn(-c2ccccc2)c(=O)n2nnnc12
T/C [9]: 96 % of control
T/C [10]: 94 % of control
T/C [11]: 96 % of control

CC#CCOCC(O)CO (stereo not drawn)
T/C (dose: 12.5 mg/kg/injection, schedule: Q01DX009 (ip), vehicle: water): 105 % of control
T/C (dose: 25.0 mg/kg/injection, schedule: Q01DX009 (ip), vehicle: water): 108 % of control
T/C (dose: 50.0 mg/kg/injection, schedule: Q01DX009 (ip), vehicle: water): 121 % of control
T/C (dose: 67.0 mg/kg/injection, schedule: Q01DX009 (ip), vehicle: water): 120 % of control

O=C(O)c1c[nH]c2cc(F)ccc2c1=O
T/C [8]: 103 % of control
T/C (dose: 100.0 mg/kg/injection, schedule: Q01DX009 (ip), vehicle: saline): 95 % of control
T/C (dose: 200.0 mg/kg/injection, schedule: Q01DX009 (ip), vehicle: saline): 96 % of control

COc1cc(C2Oc3c(OC)cc(/C=C/C(=O)NCCc4ccc(O)cc4)cc3C2C(=O)NCCc2ccc(O)cc2)ccc1O (stereo not drawn)
T/C (dose: 1.88 mg/kg/injection, schedule: Q01DX005 (ip), vehicle: Klucel (hydroxypropylcellulose) (HPC)): 96 % of control
T/C (dose: 3.75 mg/kg/injection, schedule: Q01DX005 (ip), vehicle: Klucel (hydroxypropylcellulose) (HPC)): 94 % of control
T/C (dose: 7.5 mg/kg/injection, schedule: Q01DX005 (ip), vehicle: Klucel (hydroxypropylcellulose) (HPC)): 99 % of control
T/C (dose: 15.0 mg/kg/injection, schedule: Q01DX005 (ip), vehicle: Klucel (hydroxypropylcellulose) (HPC)): 101 % of control

CSc1nc(N)c(C(=O)Nc2ccc3ccccc3c2)s1
T/C [5]: 107 % of control
T/C [6]: 98 % of control
T/C [7]: 99 % of control

Nc1nc(N2CCCCC2)c2nc(Cl)n(C3OC(CO)C(O)C3O)c2n1 (stereo not drawn)
T/C [15]: 92 % of control
T/C (dose: 120.0 mg/kg/injection, schedule: Q01DX005 (ip), vehicle: saline with Tween-80): 101 % of control
T/C (dose: 240.0 mg/kg/injection, schedule: Q01DX005 (ip), vehicle: saline with Tween-80): 100 % of control

Nc1cc2c(cc1Br)-c1ccccc1C2=O
T/C [13]: 96 % of control
T/C [14]: 97 % of control
T/C (dose: 200.0 mg/kg/injection, schedule: Q01DX009 (ip), vehicle: saline with Tween-80): 90 % of control

CC1=CC(OC2CCCCC2)OC1=O (stereo not drawn)
T/C (dose: 47.5 mg/kg/injection, schedule: Q01DX005 (ip), vehicle: Klucel (hydroxypropylcellulose) (HPC)): 104 % of control
T/C (dose: 95.0 mg/kg/injection, schedule: Q01DX005 (ip), vehicle: Klucel (hydroxypropylcellulose) (HPC)): 101 % of control
T/C (dose: 190.0 mg/kg/injection, schedule: Q01DX005 (ip), vehicle: Klucel (hydroxypropylcellulose) (HPC)): 104 % of control

C=C(Cl)C(=NC(C)(C)C)Nc1ccccc1C
T/C (dose: 1.56 mg/kg/injection, schedule: Q01DX005 (ip), vehicle: saline): 100 % of control
T/C (dose: 3.12 mg/kg/injection, schedule: Q01DX005 (ip), vehicle: Klucel (hydroxypropylcellulose) (HPC)): 103 % of control
T/C (dose: 3.12 mg/kg/injection, schedule: Q01DX005 (ip), vehicle: saline): 102 % of control
T/C (dose: 6.25 mg/kg/injection, schedule: Q01DX005 (ip), vehicle: Klucel (hydroxypropylcellulose) (HPC)): 107 % of control and 117 % of control
T/C (dose: 6.25 mg/kg/injection, schedule: Q01DX005 (ip), vehicle: saline): 109 % of control and 118 % of control
T/C (dose: 12.5 mg/kg/injection, schedule: Q01DX005 (ip), vehicle: Klucel (hydroxypropylcellulose) (HPC)): 117 % of control
T/C (dose: 12.5 mg/kg/injection, schedule: Q01DX005 (ip), vehicle: saline): 108 % of control
T/C (dose: 25.0 mg/kg/injection, schedule: Q01DX005 (ip), vehicle: Klucel (hydroxypropylcellulose) (HPC)): 121 % of control

CCCS(=O)(=O)/C=C/C(=O)c1ccc2ccccc2c1
T/C [3]: 105 % of control
T/C (dose: 200.0 mg/kg/injection, schedule: Q04DX003 (ip), vehicle: saline): 108 % of control
T/C [4]: 106 % of control

CC1=CC(=O)C=CC1=Nc1ccc(N(CCCl)CCCl)cc1
T/C [1]: 103 % of control
T/C [2]: 102 % of control

O=C1CSC(c2c(Cl)cccc2[N+](=O)[O-])N1c1nncs1 (stereo not drawn)
T/C (dose: 100.0 mg/kg/injection, schedule: Q04DX002 (ip), vehicle: saline with Tween-80): 87 % of control
T/C (dose: 200.0 mg/kg/injection, schedule: Q04DX002 (ip), vehicle: saline with Tween-80): 87 % of control
T/C (dose: 400.0 mg/kg/injection, schedule: Q04DX002 (ip), vehicle: saline with Tween-80): 92 % of control

CC1(C)CC2(C)OC(=O)c3ccccc3N2C(=S)N1 (stereo not drawn)
T/C (dose: 15.0 mg/kg/injection, schedule: Q01DX005 (ip), vehicle: saline with Tween-80): 94 % of control
T/C (dose: 30.0 mg/kg/injection, schedule: Q01DX005 (ip), vehicle: saline with Tween-80): 95 % of control
T/C [15]: 90 % of control and 96 % of control

From PubChem BioAssay AID330 (DTP/NCI, 2004)
